# Measurements reported in PMC7617869, “Molecular glues that inhibit deubiquitylase activity and inflammatory signaling” (Nature Structural & Molecular Biology, 2025).
# Values joined by “and” are separate entries in the source; they are usually repeats but may differ in a detail not shown here. Identical values can stand only once.
# Columns and labels:
# Experiment in all cases: DUB selectivity profiling (DUBprofiler, ubiquitin–rhodamine(110)–glycine)
# Assay type in all cases: biochemical
# [1] = target: T1, panel of 48 purified DUBs (Homo sapiens, UniProt A6NNY8); details: DUB USP27X; screening concentration 5 μM; 5 µM
# T1 construct: purchased Ubiquigent (DUBprofiler service)
# Experimental: (§1) Biochemical selectivity profiling (DUBprofiler) was performed by Ubiquigent with a panel of 48 purified DUBs and ubiquitin–rhodamine(110)–glycine as a fluorescent substrate.
# [2] = target: T2, panel of 48 purified DUBs (Homo sapiens, UniProt O75317); details: DUB USP12/UAF1/WDR20; screening concentration 5 μM
# T2 construct: purchased Ubiquigent (DUBprofiler service)
# Experimental: as §1
# [3] = target: T3, panel of 48 purified DUBs (Homo sapiens, UniProt O94782); details: DUB USP1/UAF1; screening concentration 5 μM; 5 µM
# T3 construct: purchased Ubiquigent (DUBprofiler service)
# Experimental: as §1
# [4] = target: T4, panel of 48 purified DUBs (Homo sapiens, UniProt P45974); details: DUB USP5; screening concentration 5 μM; 5 µM
# T4 construct: purchased Ubiquigent (DUBprofiler service)
# Experimental: as §1
# [5] = target: T5, panel of 48 purified DUBs (Homo sapiens, UniProt P54252); details: DUB Ataxin3; screening concentration 5 μM; 5 µM
# T5 construct: purchased Ubiquigent (DUBprofiler service)
# Experimental: as §1
# [6] = target: T6, panel of 48 purified DUBs (Homo sapiens, UniProt P54578); details: DUB USP14; screening concentration 5 μM; 5 µM
# T6 construct: purchased Ubiquigent (DUBprofiler service)
# Experimental: as §1
# [7] = target: T7, panel of 48 purified DUBs (Homo sapiens, UniProt P62068); details: DUB USP46/UAF1/WDR20; screening concentration 5 μM; 5 µM
# T7 construct: purchased Ubiquigent (DUBprofiler service)
# Experimental: as §1
# [8] = target: T8, panel of 48 purified DUBs (Homo sapiens, UniProt Q14694); details: DUB USP10; screening concentration 5 μM; 5 µM
# T8 construct: purchased Ubiquigent (DUBprofiler service)
# Experimental: as §1
# [9] = target: T9, panel of 48 purified DUBs (Homo sapiens, UniProt Q5T2D3); details: DUB OTUD3; screening concentration 5 μM; 5 µM
# T9 construct: purchased Ubiquigent (DUBprofiler service)
# Experimental: as §1
# [10] = target: T10, panel of 48 purified DUBs (Homo sapiens, UniProt Q5VV17); details: DUB OTUD1; screening concentration 5 μM; 5 µM
# T10 construct: purchased Ubiquigent (DUBprofiler service)
# Experimental: as §1
# [11] = target: T11, panel of 48 purified DUBs (Homo sapiens, UniProt Q5VVQ6); details: DUB OTU1; screening concentration 5 μM
# T11 construct: purchased Ubiquigent (DUBprofiler service)
# Experimental: as §1
# [12] = target: T12, panel of 48 purified DUBs (Homo sapiens, UniProt Q6GQQ9); details: DUB Cezanne; screening concentration 5 μM; 5 µM
# T12 construct: purchased Ubiquigent (DUBprofiler service)
# Experimental: as §1
# [13] = target: T13, panel of 48 purified DUBs (Homo sapiens, UniProt Q70CQ3); details: DUB USP30; screening concentration 5 μM
# T13 construct: purchased Ubiquigent (DUBprofiler service)
# Experimental: as §1
# [14] = target: T14, panel of 48 purified DUBs (Homo sapiens, UniProt Q70EL2); details: DUB USP45; screening concentration 5 μM; 5 µM
# T14 construct: purchased Ubiquigent (DUBprofiler service)
# Experimental: as §1
# [15] = target: T15, panel of 48 purified DUBs (Homo sapiens, UniProt Q7L8S5); details: DUB OTUD6A; screening concentration 5 μM; 5 µM
# T15 construct: purchased Ubiquigent (DUBprofiler service)
# Experimental: as §1
# [16] = target: T16, panel of 48 purified DUBs (Homo sapiens, UniProt Q8N6M0); details: DUB OTUD6B; screening concentration 5 μM; 5 µM
# T16 construct: purchased Ubiquigent (DUBprofiler service)
# Experimental: as §1
# [17] = target: T17, panel of 48 purified DUBs (Homo sapiens, UniProt Q8TAC2); details: DUB JOSD2; screening concentration 5 μM; 5 µM
# T17 construct: purchased Ubiquigent (DUBprofiler service)
# Experimental: as §1
# [18] = target: T18, panel of 48 purified DUBs (Homo sapiens, UniProt Q92560); details: DUB BAP1; screening concentration 5 μM; 5 µM
# T18 construct: purchased Ubiquigent (DUBprofiler service)
# Experimental: as §1
# [19] = target: T19, panel of 48 purified DUBs (Homo sapiens, UniProt Q93008); details: DUB USP9X; screening concentration 5 μM; 5 µM
# T19 construct: purchased Ubiquigent (DUBprofiler service)
# Experimental: as §1
# [20] = target: T20, panel of 48 purified DUBs (Homo sapiens, UniProt Q93009); details: DUB USP7; screening concentration 5 μM; 5 µM
# T20 construct: purchased Ubiquigent (DUBprofiler service)
# Experimental: as §1
# [21] = target: T21, panel of 48 purified DUBs (Homo sapiens, UniProt Q96FJ0); details: screening concentration 5 μM, 5 µM
# T21 construct: purchased Ubiquigent (DUBprofiler service)
# Experimental: as §1
# [22] = target: T22, panel of 48 purified DUBs (Homo sapiens, UniProt Q96G74); details: DUB OTUD5(p177S); screening concentration 5 μM; 5 µM
# T22 construct: purchased Ubiquigent (DUBprofiler service)
# Experimental: as §1
# [23] = target: T23, panel of 48 purified DUBs (Homo sapiens, UniProt Q96JH7); details: DUB VCPIP; screening concentration 5 μM
# T23 construct: purchased Ubiquigent (DUBprofiler service)
# Experimental: as §1
# [24] = target: T24, panel of 48 purified DUBs (Homo sapiens, UniProt Q96RU2); details: DUB USP28; screening concentration 5 μM; 5 µM
# T24 construct: purchased Ubiquigent (DUBprofiler service)
# Experimental: as §1
# [25] = target: T25, panel of 48 purified DUBs (Homo sapiens, UniProt Q9P2H5); details: DUB USP35; screening concentration 5 μM; 5 µM
# T25 construct: purchased Ubiquigent (DUBprofiler service)
# Experimental: as §1
# [26] = target: T26, panel of 48 purified DUBs (Homo sapiens, UniProt Q9UHP3); details: DUB USP25; screening concentration 5 μM; 5 µM
# T26 construct: purchased Ubiquigent (DUBprofiler service)
# Experimental: as §1
# [27] = target: T27, panel of 48 purified DUBs (Homo sapiens, UniProt Q9UPU5); details: DUB USP24; screening concentration 5 μM; 5 µM
# T27 construct: purchased Ubiquigent (DUBprofiler service)
# Experimental: as §1
# [28] = target: T28, panel of 48 purified DUBs (Homo sapiens, UniProt Q9Y2K6); details: DUB USP20; screening concentration 5 μM; 5 µM
# T28 construct: purchased Ubiquigent (DUBprofiler service)
# Experimental: as §1
# [29] = target: T29, panel of 48 purified DUBs (Homo sapiens, UniProt Q9Y5T5); details: DUB USP16; screening concentration 5 μM; 5 µM
# T29 construct: purchased Ubiquigent (DUBprofiler service)
# Experimental: as §1
# T21 sequence (Q96FJ0 whole entry): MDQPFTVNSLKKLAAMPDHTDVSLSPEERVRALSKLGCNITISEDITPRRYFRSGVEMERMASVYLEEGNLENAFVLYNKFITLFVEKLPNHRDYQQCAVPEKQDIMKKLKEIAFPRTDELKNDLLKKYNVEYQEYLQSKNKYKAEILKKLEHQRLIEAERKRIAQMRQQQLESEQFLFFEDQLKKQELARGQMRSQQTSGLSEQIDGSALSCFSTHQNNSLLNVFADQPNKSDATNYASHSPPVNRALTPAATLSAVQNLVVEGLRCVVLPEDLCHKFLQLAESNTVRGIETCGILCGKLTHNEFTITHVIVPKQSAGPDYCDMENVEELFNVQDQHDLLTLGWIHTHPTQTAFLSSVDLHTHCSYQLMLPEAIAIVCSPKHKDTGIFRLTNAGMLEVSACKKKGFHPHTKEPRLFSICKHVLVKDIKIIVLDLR
# T6 sequence (P54578 whole entry): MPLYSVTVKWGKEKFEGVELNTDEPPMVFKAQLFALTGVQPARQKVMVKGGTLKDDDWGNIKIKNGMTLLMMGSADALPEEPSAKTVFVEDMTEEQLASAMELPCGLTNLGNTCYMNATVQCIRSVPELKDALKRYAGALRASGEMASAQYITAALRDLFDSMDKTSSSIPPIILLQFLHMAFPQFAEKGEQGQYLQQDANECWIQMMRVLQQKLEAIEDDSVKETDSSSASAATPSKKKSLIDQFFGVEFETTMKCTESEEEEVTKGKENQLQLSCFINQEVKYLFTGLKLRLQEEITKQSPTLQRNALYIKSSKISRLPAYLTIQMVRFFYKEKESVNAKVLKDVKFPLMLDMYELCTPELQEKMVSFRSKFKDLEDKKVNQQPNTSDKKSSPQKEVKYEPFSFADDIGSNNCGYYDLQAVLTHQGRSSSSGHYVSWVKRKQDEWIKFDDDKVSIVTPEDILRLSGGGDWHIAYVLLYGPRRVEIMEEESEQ
# T12 sequence (Q6GQQ9 whole entry): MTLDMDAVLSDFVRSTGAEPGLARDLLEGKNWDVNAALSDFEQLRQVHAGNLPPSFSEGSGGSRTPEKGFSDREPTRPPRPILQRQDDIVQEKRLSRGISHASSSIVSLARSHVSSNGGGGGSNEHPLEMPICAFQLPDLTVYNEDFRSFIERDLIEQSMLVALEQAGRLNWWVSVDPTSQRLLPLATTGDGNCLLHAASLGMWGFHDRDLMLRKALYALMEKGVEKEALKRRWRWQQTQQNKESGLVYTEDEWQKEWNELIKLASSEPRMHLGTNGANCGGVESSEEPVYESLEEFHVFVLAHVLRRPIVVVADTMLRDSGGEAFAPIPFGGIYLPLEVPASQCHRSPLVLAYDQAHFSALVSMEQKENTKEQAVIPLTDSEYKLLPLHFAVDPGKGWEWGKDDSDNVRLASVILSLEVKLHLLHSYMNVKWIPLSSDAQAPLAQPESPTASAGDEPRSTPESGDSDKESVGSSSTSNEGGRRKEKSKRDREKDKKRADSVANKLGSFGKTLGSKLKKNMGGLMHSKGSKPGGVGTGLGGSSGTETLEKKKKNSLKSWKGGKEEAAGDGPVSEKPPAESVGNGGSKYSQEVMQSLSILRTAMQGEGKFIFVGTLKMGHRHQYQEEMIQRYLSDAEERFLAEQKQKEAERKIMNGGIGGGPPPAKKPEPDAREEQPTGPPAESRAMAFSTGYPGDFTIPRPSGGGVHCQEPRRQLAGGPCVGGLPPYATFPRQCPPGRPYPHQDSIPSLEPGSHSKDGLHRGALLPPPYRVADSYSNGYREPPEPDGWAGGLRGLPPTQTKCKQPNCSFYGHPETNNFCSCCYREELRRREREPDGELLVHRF
# T28 sequence (Q9Y2K6 whole entry): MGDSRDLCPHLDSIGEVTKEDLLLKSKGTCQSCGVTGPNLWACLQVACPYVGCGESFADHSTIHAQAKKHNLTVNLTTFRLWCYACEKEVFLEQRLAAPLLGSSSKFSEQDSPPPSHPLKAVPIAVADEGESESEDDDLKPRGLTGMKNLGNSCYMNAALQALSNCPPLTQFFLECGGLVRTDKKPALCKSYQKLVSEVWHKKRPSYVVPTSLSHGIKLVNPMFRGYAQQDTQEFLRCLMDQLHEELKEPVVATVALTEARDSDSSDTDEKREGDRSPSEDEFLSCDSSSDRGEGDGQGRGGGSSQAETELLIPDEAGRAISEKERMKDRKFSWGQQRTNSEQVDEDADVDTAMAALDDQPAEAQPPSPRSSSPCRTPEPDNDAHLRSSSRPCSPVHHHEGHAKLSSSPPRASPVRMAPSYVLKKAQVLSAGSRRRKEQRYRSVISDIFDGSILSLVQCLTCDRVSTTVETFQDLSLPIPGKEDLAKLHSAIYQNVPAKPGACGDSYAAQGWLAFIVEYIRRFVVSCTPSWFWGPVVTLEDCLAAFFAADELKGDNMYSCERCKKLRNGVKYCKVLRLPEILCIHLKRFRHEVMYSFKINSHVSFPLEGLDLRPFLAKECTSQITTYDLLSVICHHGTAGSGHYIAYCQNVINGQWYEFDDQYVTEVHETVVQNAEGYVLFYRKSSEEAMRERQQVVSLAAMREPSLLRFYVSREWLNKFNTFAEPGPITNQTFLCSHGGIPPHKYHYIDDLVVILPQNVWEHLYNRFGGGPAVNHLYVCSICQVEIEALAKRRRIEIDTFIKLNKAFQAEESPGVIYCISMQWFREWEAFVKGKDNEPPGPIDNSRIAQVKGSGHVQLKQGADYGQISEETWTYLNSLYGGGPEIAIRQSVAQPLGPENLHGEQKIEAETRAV
# T26 sequence (Q9UHP3 whole entry): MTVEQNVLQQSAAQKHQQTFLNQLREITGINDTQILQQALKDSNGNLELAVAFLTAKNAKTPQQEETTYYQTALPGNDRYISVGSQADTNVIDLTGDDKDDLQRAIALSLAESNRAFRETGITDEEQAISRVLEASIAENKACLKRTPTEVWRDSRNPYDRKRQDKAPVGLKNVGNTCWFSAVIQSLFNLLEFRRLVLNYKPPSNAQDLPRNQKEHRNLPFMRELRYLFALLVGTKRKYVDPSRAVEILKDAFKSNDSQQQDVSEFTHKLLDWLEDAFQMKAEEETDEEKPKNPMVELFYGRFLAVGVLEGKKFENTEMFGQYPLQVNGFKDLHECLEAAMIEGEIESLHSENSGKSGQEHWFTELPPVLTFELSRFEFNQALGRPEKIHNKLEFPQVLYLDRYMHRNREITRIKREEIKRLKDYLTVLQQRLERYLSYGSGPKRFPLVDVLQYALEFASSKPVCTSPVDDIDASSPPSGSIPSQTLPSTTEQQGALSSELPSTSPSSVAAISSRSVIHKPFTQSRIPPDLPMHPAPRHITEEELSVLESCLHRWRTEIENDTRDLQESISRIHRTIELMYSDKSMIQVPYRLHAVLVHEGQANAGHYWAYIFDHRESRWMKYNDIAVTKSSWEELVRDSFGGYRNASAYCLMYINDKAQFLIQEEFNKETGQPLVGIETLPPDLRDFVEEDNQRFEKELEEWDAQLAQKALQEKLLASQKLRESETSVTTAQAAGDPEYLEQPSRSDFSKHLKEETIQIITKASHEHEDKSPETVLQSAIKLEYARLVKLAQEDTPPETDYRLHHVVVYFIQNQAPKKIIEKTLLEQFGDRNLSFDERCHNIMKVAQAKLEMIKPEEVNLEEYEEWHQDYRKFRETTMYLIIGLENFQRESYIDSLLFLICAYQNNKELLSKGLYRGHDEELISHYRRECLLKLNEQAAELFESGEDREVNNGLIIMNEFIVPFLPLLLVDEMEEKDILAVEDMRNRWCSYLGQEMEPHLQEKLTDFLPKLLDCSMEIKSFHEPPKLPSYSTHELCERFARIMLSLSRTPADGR
# T7 sequence (P62068 whole entry): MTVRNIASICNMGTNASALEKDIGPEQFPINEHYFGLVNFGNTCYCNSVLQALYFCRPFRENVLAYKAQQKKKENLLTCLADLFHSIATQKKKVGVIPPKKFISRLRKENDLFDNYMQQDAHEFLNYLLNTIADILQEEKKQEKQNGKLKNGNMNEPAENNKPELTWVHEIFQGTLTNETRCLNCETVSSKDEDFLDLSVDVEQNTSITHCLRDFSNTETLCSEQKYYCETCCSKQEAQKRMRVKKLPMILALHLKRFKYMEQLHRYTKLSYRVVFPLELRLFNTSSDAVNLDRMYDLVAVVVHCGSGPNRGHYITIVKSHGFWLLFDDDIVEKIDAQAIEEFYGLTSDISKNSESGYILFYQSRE
# T1 sequence (A6NNY8 whole entry): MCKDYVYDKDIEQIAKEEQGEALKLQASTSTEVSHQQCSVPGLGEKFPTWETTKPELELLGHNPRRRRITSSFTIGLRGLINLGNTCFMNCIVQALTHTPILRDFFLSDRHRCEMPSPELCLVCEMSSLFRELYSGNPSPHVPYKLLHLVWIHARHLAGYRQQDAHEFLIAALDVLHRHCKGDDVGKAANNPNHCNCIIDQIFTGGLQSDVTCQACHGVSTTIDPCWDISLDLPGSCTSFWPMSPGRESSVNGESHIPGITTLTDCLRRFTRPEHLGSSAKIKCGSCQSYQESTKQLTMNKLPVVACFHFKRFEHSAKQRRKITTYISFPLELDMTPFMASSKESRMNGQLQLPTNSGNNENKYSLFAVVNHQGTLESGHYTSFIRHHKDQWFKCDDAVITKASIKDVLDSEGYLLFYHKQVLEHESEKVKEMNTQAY
# T5 sequence (P54252 whole entry): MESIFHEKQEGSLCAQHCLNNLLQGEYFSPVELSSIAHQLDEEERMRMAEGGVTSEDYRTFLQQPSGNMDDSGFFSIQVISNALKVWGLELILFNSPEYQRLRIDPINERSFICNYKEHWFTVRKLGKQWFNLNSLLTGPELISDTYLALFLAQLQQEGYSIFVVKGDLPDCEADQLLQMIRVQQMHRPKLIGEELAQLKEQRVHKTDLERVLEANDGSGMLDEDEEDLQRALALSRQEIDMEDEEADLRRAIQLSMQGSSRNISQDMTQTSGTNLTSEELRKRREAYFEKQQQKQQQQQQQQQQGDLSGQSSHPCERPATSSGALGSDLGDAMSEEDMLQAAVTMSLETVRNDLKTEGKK
smiles,measurement,setting,value
O=C(NC1CCNCC1)c1nn(C(=O)c2c(Cl)cccc2Cl)cc1NC(=O)c1c(Cl)cccc1Cl [JMS-175-2],Activity (% control),[1],102 % control and 97 % control
same,Activity (% control),[2],96 % control
same,Activity (% control),[3],81 % control and 82 % control
same,Activity (% control),[4],103 % control and 105 % control
same,Activity (% control),[5],87 % control and 85 % control
same,Activity (% control),[6],85 % control and 95 % control
same,Activity (% control),[7],95 % control and 99 % control
same,Activity (% control),[8],95 % control and 102 % control
same,Activity (% control),[9],95 % control and 93 % control
same,Activity (% control),[10],100 % control and 102 % control
same,Activity (% control),[11],84 % control
same,Activity (% control),[12],88 % control and 90 % control
same,Activity (% control),[13],89 % control
same,Activity (% control),[14],112 % control and 107 % control
same,Activity (% control),[15],100 % control and 103 % control
same,Activity (% control),[16],102 % control and 101 % control
same,Activity (% control),[17],101 % control and 102 % control
same,Activity (% control),[18],92 % control and 96 % control
same,Activity (% control),[19],103 % control and 98 % control
same,Activity (% control),[20],116 % control and 121 % control
same,Activity (% control),[21]; DUB AMSH-LP(+Zn2+),100 % control and 99 % control
same,Activity (% control),[21]; DUB AMSH-LP,98 % control and 90 % control
same,Activity (% control),[22],96 % control and 99 % control
same,Activity (% control),[23],93 % control
same,Activity (% control),[24],107 % control and 96 % control
same,Activity (% control),[25],96 % control and 94 % control
same,Activity (% control),[26],93 % control and 94 % control
same,Activity (% control),[27],98 % control and 99 % control
same,Activity (% control),[28],93 % control and 101 % control
same,Activity (% control),[29],79 % control and 78 % control
